From ChEMBL document CHEMBL6074682, “Expanding the therapeutic window of gramicidin S towards a safe and effective systemic treatment of methicillin-resistant S. aureus infections” (Eur J Med Chem, 2025)
≈ marks a conversion by molar mass, not a printed value. Square brackets hold non-standard residues; d marks the D form. Peptide text beside a SMILES is read from it. Tle = CC(C)(C)[C@H](N)C(=O)O; Orn = NCCC[C@H](N)C(=O)O

Legend:
[1] = Therapeutic index, ratio of HC50 for human RBC to MIC for antibacterial activity against methicillin-sensitive Staphylococcus aureus ATCC 29213 clinical isolate; type: toxicity, cell-based; details: pooled result: one value given for 2 cell lines, strains, targets or settings, read-out: TI
[2] = Hemolytic activity in human RBC assessed as hemolysis incubated for 1 hr by absorbance based assay; type: toxicity, cell-based, Erythrocyte; details: human red blood cells
Staphylococcus aureus [3] = test: Antibacterial activity against methicillin-sensitive Staphylococcus aureus ATCC 29213 clinical isolate assessed as bacterial growth inhibition at 256 to 0.125 ug/ml in CAMH broth medium incubated for 16 to 20 hrs by broth microdilution method; type: functional; details: dose 256-0.125 µg/ml, time 16-20 hrs
Staphylococcus aureus [4] = test: Antibacterial activity against methicillin-resistant Staphylococcus aureus ATCC USA 300 clinical isolate assessed as bacterial growth inhibition at 256 to 0.125 ug/ml in CAMH broth medium incubated for 16 to 20 hrs by broth microdilution method; type: functional; details: dose 256-0.125 µg/ml, time 16-20 hrs
[5] = Retention time of the compound by RP-HPLC analysis; type: physicochemical
[6] = Nephrotoxicity against HEK293 cells assessed as cell viability incubated for 24 hrs by MTT assay; type: toxicity, cell-based; details: human

Row | SMILES | selectivity ratio [1] | HC50 at 1 h [2] [µg/mL] | MIC (Staphylococcus aureus [3]) [µg/mL] | MIC (Staphylococcus aureus [4]) [µg/mL] | Retention_time [5] [min] | IC50 at 24 h [6] [µg/mL]
1 | CC(C)C[C@@H]1NC(=O)[C@H](CCCN)NC(=O)[C@H](C(C)(C)C)NC(=O)[C@@H]2CCCN2C(=O)[C@@H](Cc2ccccc2)NC(=O)[C@H](CC(C)C)NC(=O)[C@H](CCCN)NC(=O)[C@H](C(C)C)NC(=O)[C@@H]2CCCN2C(=O)[C@@H](CCCNC(=N)N)NC1=O | 10 | 60.2 | 6 (≈ 5.15 µM) | 6 (≈ 5.15 µM) | 16.8 | 19.5 (≈ 16.8 µM)
2 | CC(C)C[C@@H]1NC(=O)[C@H](CCCN)NC(=O)[C@H](C(C)(C)C)NC(=O)[C@@H]2CCCN2C(=O)[C@@H](CCCNC(=N)N)NC(=O)[C@H](CC(C)C)NC(=O)[C@H](CCCN)NC(=O)[C@H](C(C)C)NC(=O)[C@@H]2CCCN2C(=O)[C@@H](Cc2ccccc2)NC1=O | 7.21 | 50.5 | 7 (≈ 6.01 µM) | 7 (≈ 6.01 µM) | 16.79 | 38.1 (≈ 32.7 µM)
3 | CC(C)C[C@@H]1NC(=O)[C@H](CCCN)NC(=O)[C@H](C(C)C)NC(=O)[C@H](Cc2c[nH]c3ccccc23)NC(=O)[C@@H](Cc2c[nH]c3ccccc23)NC(=O)[C@H](CC(C)C)NC(=O)[C@H](CCCN)NC(=O)[C@H](C(C)C)NC(=O)[C@H](Cc2c[nH]c3ccccc23)NC(=O)[C@@H](Cc2c[nH]c3ccccc23)NC1=O | 1.74 | 55.6 | 32 (≈ 22.9 µM) | 32 (≈ 22.9 µM) | 18.69 | 19.7 (≈ 14.1 µM)
4 | CC(C)C[C@@H]1NC(=O)[C@H](CCCN)NC(=O)[C@H](C(C)C)NC(=O)[C@@H]2CCCN2C(=O)[C@@H](Cc2ccccc2)NC(=O)[C@H](CC(C)C)NC(=O)[C@H](CCCN)NC(=O)[C@H](C(C)C)NC(=O)[C@H](Cc2c[nH]c3ccccc23)NC(=O)[C@@H](Cc2ccccc2)NC1=O (HELM PEPTIDE1{L.[dF].P.V.[Orn].L.[dF].W.V.[Orn]}$PEPTIDE1,PEPTIDE1,1:R1-10:R2$$$V2.0) | 2.26 | 9.04 | 4 (≈ 3.25 µM) | 4 (≈ 3.25 µM) | 18.78 | 5.07 (≈ 4.12 µM)
5 | CC(C)C[C@@H]1NC(=O)[C@H](CCCN)NC(=O)[C@H](C(C)C)NC(=O)[C@@H]2CCCN2C(=O)[C@@H](Cc2ccccc2)NC(=O)[C@H](CC(C)C)NC(=O)[C@H](CCCN)NC(=O)[C@H](C(C)C)NC(=O)[C@H](Cc2c[nH]c3ccccc23)NC(=O)[C@@H](CCCNC(=N)N)NC1=O (HELM PEPTIDE1{L.[dF].P.V.[Orn].L.[dR].W.V.[Orn]}$PEPTIDE1,PEPTIDE1,1:R1-10:R2$$$V2.0) | 6.56 | 32.8 | 5 (≈ 4.03 µM) | 5 (≈ 4.03 µM) | 16.56 | 13.6 (≈ 11 µM)
6 | CC(C)C[C@@H]1NC(=O)[C@H](CCCN)NC(=O)[C@H](C(C)C)NC(=O)[C@@H]2CCCN2C(=O)[C@@H](Cc2ccccc2)NC(=O)[C@H](CC(C)C)NC(=O)[C@H](CCCN)NC(=O)[C@H](C(C)C)NC(=O)[C@H](Cc2c[nH]c3ccccc23)NC(=O)[C@@H](Cc2c[nH]c3ccccc23)NC1=O (HELM PEPTIDE1{L.[dF].P.V.[Orn].L.[dW].W.V.[Orn]}$PEPTIDE1,PEPTIDE1,1:R1-10:R2$$$V2.0) | 1.46 | 5.85 | 4 (≈ 3.15 µM) | 4 (≈ 3.15 µM) | 18.78 | 4.64 (≈ 3.65 µM)
7 | CC(C)C[C@@H]1NC(=O)[C@H](CCCN)NC(=O)[C@H](C(C)(C)C)NC(=O)[C@@H]2CCCN2C(=O)[C@@H](Cc2ccccc2)NC(=O)[C@H](CC(C)C)NC(=O)[C@H](CCCN)NC(=O)[C@H](C(C)C)NC(=O)[C@@H]2CCCN2C(=O)[C@@H](Cc2ccccc2)NC1=O (HELM PEPTIDE1{L.[dF].P.[CC(C)(C)[C@H](N[*:1])C(=O)[*:2]].[Orn].L.[dF].P.V.[Orn]}$PEPTIDE1,PEPTIDE1,1:R1-10:R2$$$V2.0) | 1.87 | 7.49 | 4 (≈ 3.46 µM) | 4 (≈ 3.46 µM) | 19.38 | 5.46 (≈ 4.73 µM)
8 | CC(C)C[C@@H]1NC(=O)[C@H](CCCN)NC(=O)[C@H](C(C)(C)C)NC(=O)[C@@H]2CCCN2C(=O)[C@@H](Cc2ccccc2)NC(=O)[C@H](CC(C)C)NC(=O)[C@H](CCCN)NC(=O)[C@H](C(C)(C)C)NC(=O)[C@@H]2CCCN2C(=O)[C@@H](Cc2ccccc2)NC1=O (HELM PEPTIDE1{L.[dF].P.[CC(C)(C)[C@H](N[*:1])C(=O)[*:2]].[Orn].L.[dF].P.[CC(C)(C)[C@H](N[*:1])C(=O)[*:2]].[Orn]}$PEPTIDE1,PEPTIDE1,1:R1-10:R2$$$V2.0) | 1.57 | 6.26 | 4 (≈ 3.42 µM) | 4 (≈ 3.42 µM) | 19.99 | 4.62 (≈ 3.95 µM)
9 | CC(C)C[C@@H]1NC(=O)[C@H](CCCN)NC(=O)[C@H](C(C)(C)C)NC(=O)[C@@H]2CCCN2C(=O)[C@@H](Cc2ccccc2)NC(=O)[C@H](CC(C)C)NC(=O)[C@H](CCCN)NC(=O)[C@H](C(C)(C)C)NC(=O)[C@@H]2CCCN2C(=O)[C@@H](CCCNC(=N)N)NC1=O (HELM PEPTIDE1{L.[dF].P.[CC(C)(C)[C@H](N[*:1])C(=O)[*:2]].[Orn].L.[dR].P.[CC(C)(C)[C@H](N[*:1])C(=O)[*:2]].[Orn]}$PEPTIDE1,PEPTIDE1,1:R1-10:R2$$$V2.0) | 5.9 | 17.7 | 3 (≈ 2.55 µM) | 3 (≈ 2.55 µM) | 17.15 | 9.75 (≈ 8.27 µM)
10 | CC(C)C[C@@H]1NC(=O)[C@H](CCCN)NC(=O)[C@H](C(C)C)NC(=O)[C@H](Cc2c[nH]c3ccccc23)NC(=O)[C@@H](Cc2ccccc2)NC(=O)[C@H](CC(C)C)NC(=O)[C@H](CCCN)NC(=O)[C@H](C(C)C)NC(=O)[C@H](Cc2c[nH]c3ccccc23)NC(=O)[C@@H](Cc2ccccc2)NC1=O (HELM PEPTIDE1{L.[dF].W.V.[Orn].L.[dF].W.V.[Orn]}$PEPTIDE1,PEPTIDE1,1:R1-10:R2$$$V2.0) | 1.75 | 12.2 | 7 (≈ 5.3 µM) | 7 (≈ 5.3 µM) | 18.58 | 5.03 (≈ 3.81 µM)
11 | CC(C)C[C@@H]1NC(=O)[C@H](CCCN)NC(=O)[C@H](C(C)C)NC(=O)[C@@H]2CCCN2C(=O)[C@@H](CCCNC(=N)N)NC(=O)[C@H](CC(C)C)NC(=O)[C@H](CCCN)NC(=O)[C@H](C(C)C)NC(=O)[C@H](Cc2c[nH]c3ccccc23)NC(=O)[C@@H](Cc2ccccc2)NC1=O (HELM PEPTIDE1{L.[dF].W.V.[Orn].L.[dR].P.V.[Orn]}$PEPTIDE1,PEPTIDE1,1:R1-10:R2$$$V2.0) | 6.38 | 31.9 | 5 (≈ 4.03 µM) | 5 (≈ 4.03 µM) | 16.5 | 11.3 (≈ 9.13 µM)
12 | CC(C)C[C@@H]1NC(=O)[C@H](CCCN)NC(=O)[C@H](C(C)C)NC(=O)[C@H](Cc2c[nH]c3ccccc23)NC(=O)[C@@H](Cc2ccccc2)NC(=O)[C@H](CC(C)C)NC(=O)[C@H](CCCN)NC(=O)[C@H](C(C)C)NC(=O)[C@H](Cc2c[nH]c3ccccc23)NC(=O)[C@@H](CCCNC(=N)N)NC1=O (HELM PEPTIDE1{L.[dF].W.V.[Orn].L.[dR].W.V.[Orn]}$PEPTIDE1,PEPTIDE1,1:R1-10:R2$$$V2.0) | 3.93 | 19.6 | 5 (≈ 3.76 µM) | 5 (≈ 3.76 µM) | 16.6 | 5.36 (≈ 4.03 µM)
13 | CC(C)C[C@@H]1NC(=O)[C@H](CCCN)NC(=O)[C@H](C(C)C)NC(=O)[C@H](Cc2c[nH]c3ccccc23)NC(=O)[C@@H](Cc2c[nH]c3ccccc23)NC(=O)[C@H](CC(C)C)NC(=O)[C@H](CCCN)NC(=O)[C@H](C(C)C)NC(=O)[C@H](Cc2c[nH]c3ccccc23)NC(=O)[C@@H](Cc2ccccc2)NC1=O (HELM PEPTIDE1{L.[dF].W.V.[Orn].L.[dW].W.V.[Orn]}$PEPTIDE1,PEPTIDE1,1:R1-10:R2$$$V2.0) | 0.58 | 37.2 | 64 (≈ 47.1 µM) | 64 (≈ 47.1 µM) | 18.68 | 4.07 (≈ 3 µM)
14 | CC(C)(C)[C@@H]1NC(=O)[C@H](CCCN)NC(=O)[C@H](C(C)(C)C)NC(=O)[C@@H]2CCCN2C(=O)[C@@H](Cc2ccccc2)NC(=O)[C@H](C(C)(C)C)NC(=O)[C@H](CCCN)NC(=O)[C@H](C(C)(C)C)NC(=O)[C@@H]2CCCN2C(=O)[C@@H](Cc2ccccc2)NC1=O (cyclo([Orn][Tle][dF]P[Tle][Orn][Tle][dF]P[Tle])) | 2.95 | 5.9 | 2 (≈ 1.71 µM) | 2 (≈ 1.71 µM) | 19.9 | 5.31 (≈ 4.54 µM)
15 | CC(C)(C)[C@@H]1NC(=O)[C@H](CCCN)NC(=O)[C@H](C(C)(C)C)NC(=O)[C@@H]2CCCN2C(=O)[C@@H](Cc2ccccc2)NC(=O)[C@H](C(C)(C)C)NC(=O)[C@H](CCCN)NC(=O)[C@H](C(C)(C)C)NC(=O)[C@@H]2CCCN2C(=O)[C@@H](CCCNC(=N)N)NC1=O (cyclo([Orn][Tle][dF]P[Tle][Orn][Tle][dR]P[Tle])) | 14 | 84.1 | 6 (≈ 5.09 µM) | 6 (≈ 5.09 µM) | 16.92 | 12.6 (≈ 10.7 µM)
16 | CC(C)C[C@@H]1NC(=O)[C@H](CCCN)NC(=O)[C@H](C(C)C)NC(=O)[C@@H]2CCCN2C(=O)[C@@H](Cc2ccccc2)NC(=O)[C@H](CC(C)C)NC(=O)[C@H](CCCN)NC(=O)[C@H](C(C)C)NC(=O)[C@@H]2CCCN2C(=O)[C@@H](Cc2ccccc2)NC1=O [GRAMICIDIN S] (HELM PEPTIDE1{L.[dF].P.V.[Orn].L.[dF].P.V.[Orn]}$PEPTIDE1,PEPTIDE1,1:R1-10:R2$$$V2.0) | 3.09 | 12.3 | 4 (≈ 3.5 µM) | 4 (≈ 3.5 µM) | 18.57 | 6.45 (≈ 5.65 µM)
